Experimental data as given in patent publication US6565890B2, “Antiviral drugs containing heteropolyanions” (priority 2001, dated 2003).

Tests used:
Assay type in all cases: cell-based
[1] = in vitro; settings: for respective culture cells; read-out: toxicity CC50
[2] = test system: MT-4 and Hela CD4 cells; assay: Cytotoxicity in the anti-HIV test, MTT colorimetric method; settings: MT-4 cells or Hela CD4 cells; in words
Procedure: The tissue culture cells were MT-4 and Hela CD4. The HIV was prepared from the supernatant solutions of the culture fluids of HIV-producing MT-4 and HIV cells, or Hela CD4 and HIV cells. The media were 10% fetal calf serum, and for culturing, 0.2 ml of MT-4 cells or Hela CD4 cells and 0.2 ml of HIV cells were placed in each well of a 24-well culture tray. After virus adsorption (the virus infectivity titer was 100-CCID50 per about 10^5 cells), each drug such as PM-1001 diluted in a medium was added, to make a total amount of 1.0 ml, and the mixture was cultured at 37° C. for 4 to 6 days. As controls, cells not infected with HIV and cells untreated with any drug such as PM-1001 were used. […] In the MTT colorimetry, the absorbance is measured by means of a colorimeter using a wavelength of 540 nm, to obtain the vital cell number proportional to the absorbance. If all the cells are dead due to virus infection, the absorbance becomes almost zero.
(§1) With the concentration of each drug such as PM-1001 as a parameter, the cell growth rate was examined. […] That is, the drug concentration capable of improving the absorbance of […] up to 50% (to prevent cytocidal cell degeneration) is obtained and expressed in micromoles (μM). […] ND stands for “not determined”.

[3] = test system: DFV, FluV-A, RSV, PfluV, CDV, HIV; assay: Spectrum of antiviral activity (FIG. 3), MTT colorimetric method; settings: all viruses of FIG. 3; in words
[4] = test system: HIV (human immunodeficiency virus); assay: Inhibition of HIV cytopathic effect, MTT colorimetric method; settings: HIV produced with either MT-4 cells or Hela CD4 cells; in words, figures only in FIG. 2
Procedure: The antiviral effect against HIV (human immunodeficiency virus) and cytotoxicity of the PM-1001 and PM-1002 of this invention synthesized as described above were examined in comparison with those of K6[C0W12O40]. (called PM-1003), i.e., a heteropolyoxotungstate salt having perfect Keggin structure and conventional dextran sulfate (DS5000) and azidothymidine (AZT) respectively utilized because of their excellent anti-HIV effect. The inhibition of cell growth of HIV was measured according to the MTT colorimetric method.
The tissue culture cells were MT-4 and Hela CD4. The HIV was prepared from the supernatant solutions of the culture fluids of HIV-producing MT-4 and HIV cells, or Hela CD4 and HIV cells. […] In the MTT colorimetry, the absorbance is measured by means of a colorimeter using a wavelength of 540 nm, to obtain the vital cell number proportional to the absorbance. If all the cells are dead due to virus infection, the absorbance becomes almost zero.
as §1

Molecule | CC50 [1] | adverse effects (cytotoxicity) [2] | antiviral effects (FIG. 3, EC50 comparison) [3] | potent efficacy against HIV [4]
NC(=O)c1ncn([C@@H]2O[C@H](CO)[C@@H](O)[C@H]2O)n1 [ribavirin] | > 100 µM | – | – | –
K6H6[(SbW9O33)2V3O3].29.5H2O [PM-1002] | – | low adverse effects | remarkably excellent antiviral effects | very high potent efficacies
K6H4[(SbW9O33)2V3O3].29.5H2O [PM-1001] | – | low adverse effects | remarkably excellent antiviral effects | very high potent efficacies
